# Measured values published in ChEMBL document CHEMBL4190378, “Synthesis and evaluation of new 2-chloro-4-aminopyrimidine and 2,6-dimethyl-4-aminopyrimidine derivatives as tubulin polymerization inhibitors” (Bioorg Med Chem Lett, 2018).
# Activity calls are given as the source filed them. The calls are words filed in the database; no cut-off is given here.
# Assays:
# HeLa [1] = test: Induction of mitochondrial transmembrane potential loss in human HeLa cells assessed as JC1 dye monomers level at 500 nM incubated for 24 hrs by JC1 staining based flow cytometry (reference value: 4.12%); format: functional
# HeLa [2] = test: Induction of apoptosis in human HeLa cells assessed as viable cells level at 50 nM incubated for 48 hrs by Annexin-V/FITC and propidium iodide staining based flow cytometry (reference value: 99.72%); format: functional
# HeLa [3] = test: Induction of apoptosis in human HeLa cells assessed as viable cells level at 500 nM incubated for 48 hrs by Annexin-V/FITC and propidium iodide staining based flow cytometry (reference value: 99.72%); format: functional
# MDA-MB-231 = test: Antiproliferative activity against human MDA-MB-231 cells incubated for 48 hrs by MTT assay; format: functional, cell-based; settings: MDA-MB-231, 48 h
# A549 = test: Antiproliferative activity against human A549 cells incubated for 48 hrs by MTT assay; format: functional, cell-based; settings: A549, 48 h
# HeLa [4] = test: Induction of apoptosis in human HeLa cells assessed as late apoptotic cells level at 50 nM incubated for 72 hrs by Annexin-V/FITC and propidium iodide staining based flow cytometry (reference value: 0.02%); format: functional
# HeLa [5] = test: Induction of apoptosis in human HeLa cells assessed as necrotic cells level at 100 nM incubated for 48 hrs by Annexin-V/FITC and propidium iodide staining based flow cytometry (reference value: 0.03%); format: functional
# HeLa [6] = test: Induction of apoptosis in human HeLa cells assessed as late apoptotic cells level at 500 nM incubated for 72 hrs by Annexin-V/FITC and propidium iodide staining based flow cytometry (reference value: 0.02%); format: functional
# HeLa [7] = test: Induction of apoptosis in human HeLa cells assessed as late apoptotic cells level at 100 nM incubated for 48 hrs by Annexin-V/FITC and propidium iodide staining based flow cytometry (reference value: 0.02%); format: functional
# HepG2 = test: Antiproliferative activity against human HepG2 cells incubated for 48 hrs by MTT assay; format: functional, cell-based; settings: HepG2, 48 h
# HeLa [8] = test: Induction of mitochondrial transmembrane potential loss in human HeLa cells assessed as JC1 dye aggregates level at 50 nM incubated for 24 hrs by JC1 staining based flow cytometry (reference value: 95.85%); format: functional
# HeLa [9] = test: Induction of apoptosis in human HeLa cells assessed as necrotic cells level at 50 nM incubated for 72 hrs by Annexin-V/FITC and propidium iodide staining based flow cytometry (reference value: 0.03%); format: functional
# HeLa [10] = test: Induction of apoptosis in human HeLa cells assessed as early apoptotic cells level at 500 nM incubated for 72 hrs by Annexin-V/FITC and propidium iodide staining based flow cytometry (reference value: 0.16%); format: functional
# [11] = Inhibition of porcine brain tubulin polymerization measured every 60 secs for 90 mins by DAPI dye based fluorescence assay; set-up: species or system Sus scrofa
# HeLa [12] = test: Induction of mitochondrial transmembrane potential loss in human HeLa cells at 50 nM incubated for 24 hrs by JC1 staining based fluorescence microscopy; format: functional, cell-based
# HeLa [13] = test: Induction of mitochondrial transmembrane potential loss in human HeLa cells assessed as JC1 dye aggregates level at 100 nM incubated for 24 hrs by JC1 staining based flow cytometry (reference value: 95.85%); format: functional
# HeLa [14] = test: Induction of mitochondrial transmembrane potential loss in human HeLa cells assessed as JC1 dye monomers level at 50 nM incubated for 24 hrs by JC1 staining based flow cytometry (reference value: 4.12%); format: functional
# HeLa [15] = test: Induction of apoptosis in human HeLa cells assessed as necrotic cells level at 50 nM incubated for 48 hrs by Annexin-V/FITC and propidium iodide staining based flow cytometry (reference value: 0.03%); format: functional
# HeLa [16] = test: Induction of cell cycle arrest in human HeLa cells assessed as accumulation at G2/M phase at 500 nM incubated for 24 hrs by propidium iodide staining based flow cytometry; format: functional
# HeLa [17] = test: Induction of apoptosis in human HeLa cells assessed as early apoptotic cells level at 100 nM incubated for 48 hrs by Annexin-V/FITC and propidium iodide staining based flow cytometry (reference value: 0.16%); format: functional
# HeLa [18] = test: Induction of cell cycle arrest in human HeLa cells assessed as tetraploid peaks level at 50 nM incubated for 24 hrs by propidium iodide staining based flow cytometry; format: functional
# HeLa [19] = test: Antiproliferative activity against human HeLa cells incubated for 48 hrs by MTT assay; format: functional, cell-based
# HeLa [20] = test: Induction of cell cycle arrest in human HeLa cells assessed as accumulation at subG1 phase at 100 nM incubated for 24 hrs by propidium iodide staining based flow cytometry; format: functional
# HCT-116 = test: Antiproliferative activity against human HCT116 cells incubated for 48 hrs by MTT assay; format: functional, cell-based; settings: HCT-116, 48 h
# HeLa [21] = test: Induction of apoptosis in human HeLa cells assessed as necrotic cells level at 100 nM incubated for 72 hrs by Annexin-V/FITC and propidium iodide staining based flow cytometry (reference value: 0.03%); format: functional
# HeLa [22] = test: Induction of apoptosis in human HeLa cells assessed as viable cells level at 50 nM incubated for 72 hrs by Annexin-V/FITC and propidium iodide staining based flow cytometry (reference value: 99.72%); format: functional
# HeLa [23] = test: Induction of apoptosis in human HeLa cells assessed as necrotic cells level at 500 nM incubated for 72 hrs by Annexin-V/FITC and propidium iodide staining based flow cytometry (reference value: 0.03%); format: functional
# HeLa [24] = test: Induction of apoptosis in human HeLa cells assessed as early apoptotic cells level at 500 nM incubated for 48 hrs by Annexin-V/FITC and propidium iodide staining based flow cytometry (reference value: 0.16%); format: functional
# HeLa [25] = test: Induction of apoptosis in human HeLa cells assessed as viable cells level at 500 nM incubated for 72 hrs by Annexin-V/FITC and propidium iodide staining based flow cytometry (reference value: 99.72%); format: functional
# HeLa [26] = test: Induction of cell cycle arrest in human HeLa cells assessed as induction of disappearance of G2/M phase at 500 nM incubated for 48 hrs by propidium iodide staining based flow cytometry; format: functional
# HeLa [27] = test: Induction of cell cycle arrest in human HeLa cells assessed as tetraploid peaks level at 50 nM incubated for 48 hrs by propidium iodide staining based flow cytometry; format: functional
# HeLa [28] = test: Induction of mitochondrial transmembrane potential loss in human HeLa cells at 100 nM incubated for 24 hrs by JC1 staining based fluorescence microscopy; format: functional, cell-based
# HeLa [29] = test: Inhibition of tubulin polymerization in human HeLa cells assessed as morphological changes by measuring narrowing of nucleus at 0.5 uM incubated for 24 hrs by laser scanning confocal microscopy; format: functional, cell-based
# HeLa [30] = test: Induction of cell cycle arrest in human HeLa cells assessed as accumulation at subG1 phase at 500 nM incubated for 24 hrs by propidium iodide staining based flow cytometry; format: functional
# HeLa [31] = test: Induction of cell cycle arrest in human HeLa cells assessed as accumulation at G2/M phase at 100 nM incubated for 24 hrs by propidium iodide staining based flow cytometry; format: functional
# HeLa [32] = test: Inhibition of tubulin polymerization in human HeLa cells assessed as morphological changes by measuring spindle microtubule dis-organisation at 0.5 uM incubated for 24 hrs by laser scanning confocal microscopy; format: functional, cell-based
smiles,measurement,setting,value
COc1ccc(N(C)c2cc(C)nc(C)n2)cc1O,Activity,HeLa [1],48.26%
same,Activity,HeLa [2],89.56%
same,Activity,HeLa [3],29.81%
same,IC50,MDA-MB-231,1100 nM
same,IC50,A549,113 nM
same,Activity,HeLa [4],7.44%
same,Activity,HeLa [5],0.07%
same,Activity,HeLa [6],18.61%
same,Activity,HeLa [7],0.05%
same,IC50,HepG2,112 nM
same,Activity,HeLa [8],88.35%
same,Activity,HeLa [9],0.6%
same,Activity,HeLa [10],66.08%
same,IC50,[11],5810 nM
same,Activity,HeLa [12],Active
same,Activity,HeLa [13],70.71%
same,Activity,HeLa [14],11.47%
same,Activity,HeLa [15],0.01%
same,Activity,HeLa [16],55.6%
same,Activity,HeLa [17],23.16%
same,Activity,HeLa [18],28.3%
same,IC50,HeLa [19],93 nM
same,Activity,HeLa [20],Active
same,IC50,HCT-116,126 nM
same,Activity,HeLa [21],2.08%
same,Activity,HeLa [22],82.18%
same,Activity,HeLa [23],3.54%
same,Activity,HeLa [24],69.81%
same,Activity,HeLa [25],11.77%
same,Activity,HeLa [26],Active
same,Activity,HeLa [27],38.7%
same,Activity,HeLa [28],Active
same,inhibition,HeLa [29],Active
same,Activity,HeLa [30],Active
same,Activity,HeLa [31],39.6%
same,inhibition,HeLa [32],Active
